Test results from article PMC6320956, “O-Aminoalkyl-O-Trimethyl-2,3-Dehydrosilybins: Synthesis and In Vitro Effects Towards Prostate Cancer Cells” (Molecules, 2018).
Like-named read-outs stand apart in the source and are kept apart here.

Columns and labels:
[1] = system: PC-3 cells; test: WST-1 cell proliferation assay, PC-3; type: cell-based, human; conditions: for IC50 (Silibinin)/IC50(Derivative) PC-3: fold potency relative to silibinin; for IC50: WST-1, three days of exposure, mean ± SD, n = 3
Protocol: (§1) The in vitro antiproliferative activities of six 7-O-substituted and 26 3-O-substituted silybin derivatives were evaluated using the WST-1 cell proliferation assay, according to the procedure as described in the Experimental Section in both androgen-sensitive (LNCaP) and androgen-insensitive (PC-3 and DU145) human prostate cancer cell lines. Silibinin and docetaxel were used as a positive control for comparison in the parallel experiments and the IC50 values calculated from the dose-response curves are summarized in Table 1. […] A three-carbon linker in 11 and 29, as well as a five-carbon linker in 31, 37 and 40, are beneficial to the potency.
(§2) All cell lines were initially purchased from American Type Culture Collection (ATCC^TM) (Manassas, VA, USA). The PC-3 and LNCaP prostate cancer cell lines were routinely cultured in RPIM-1640 medium supplemented with 10% FBS and 1% penicillin/streptomycin. The DU145 prostate cancer cells were routinely cultured in Eagle’s Minimum Essential Medium (EMEM) supplemented with 10% FBS and 1% penicillin/streptomycin. Cultures were maintained in a high humidity environment supplemented with 5% carbon dioxide at a temperature of 37 °C.
(§3) PC-3, DU145, or LNCaP cells were plated in 96-well plates at a density of 3,200 per well in 200 µL of culture medium. The cells were then separately treated with silibinin, or synthesized silibinin derivatives, at five different doses for three days, while equal treatment volumes of DMSO (0.25%) were used as the vehicle control. The cells were cultured in a CO2 incubator at 37 °C for three days. A total of 10 µL of the premixed WST-1 cell proliferation reagent (Clontech) was added to each well. After mixing gently for one min on an orbital shaker, the cells were incubated for an additional 3 h at 37 °C. To ensure a homogeneous distribution of color, it is important to mix gently on an orbital shaker for one min. The absorbance of each well was measured using a microplate reader (Synergy HT, BioTek, Winooski, VT, USA) at a wavelength of 430 nm. […] For calculating the IC50 values, a linear proliferative inhibition was made based on at least five dosages for each compound.

[2] = system: PC-3 cells; test: Cell cycle analysis by flow cytometry (propidium iodide); type: cell-based, human; conditions: 20 µM, 16 h; controls 55.7% (11), 36.2% (29), 33.1% (31, 37, 40)
Protocol: Silibinin can arrest the rat (H-7 and I-8) and human prostate cancer cell (LNCaP) cycle at the G1 phase, and cause G1 and G2-M PC-3 prostate cancer cell cycle arrest.
PC-3 cells were plated in 24-well plates at a density of 200,000 per well in 400 µL of culture medium. […] […] Both attached and floating cells were collected in a centrifuge tube by centrifugation at an rcf value of 450 g for 5 min. After discarding the supernatant, the collected cells were re-suspended with 500 µL 80% cold ethanol to fix them for 30 min in 4 °C. The fixed cells could be stored at −20 °C for one week. After fixation, the ethanol was removed after centrifuging and the cells were washed with PBS. The cells were then re-suspend with 100 μL of […] ribonuclease and were cultured at 37 °C for 30 min to degrade all RNA. The cells were stained with 200 μL of 50 μg/mLpropidium iodide stock solution for 30 min at […], and then the fluorescence intensity of PI was detected in individual PC-3 cells using an Attune flow cytometer (Life Technologies, Carlsbad, CA, USA) within 0.5 to 1 h after staining.

[3] = system: MCF 10A non-neoplastic human mammary epithelial cell line; test: WST-1 cell proliferation assay, MCF 10A non-neoplastic cells; type: cell-based; conditions: for IC50: Homo sapiens, MCF-10A, 72 h, WST-1, three days of exposure, mean ± SD, n = 3
Protocol: (§4) Silibinin and five potent derivatives (11, 29, 31, 37, and 40) were selected for further evaluation against the MCF 10A non-neoplastic human mammary epithelial cell line and PWR-1E non-neoplastic human prostate epithelial cells.
as §3

[4] = system: LNCaP cells; test: WST-1 cell proliferation assay, LNCaP; type: cell-based, human; conditions: for IC50: WST-1, three days of exposure, mean ± SD, n = 3; for IC50 (Silibinin)/IC50(Derivative) LNCaP: fold potency relative to silibinin
Protocol: as §1, §2, §3

[5] = system: prostate cancer cell lines (LNCaP, PC-3 and DU145); test: WST-1 cell proliferation assay, three prostate cancer cell lines together; type: cell-based, human; conditions: range for the five optimal derivatives over PC-3, DU145, LNCaP; for IC50: Homo sapiens
Excerpt: As part of our ongoing silybin project, this study aims to introduce a basic nitrogen-containing group to 7-OH of 3,5,20-O-trimethyl-2,3-dehydrosilybin or 3-OH of 5,7,20-O-trimethyl-2,3-dehydrosilybin via an appropriate linker for in vitro evaluation as potential anti-prostate cancer agents. The synthetic approaches to 7-O-substituted-3,5,20-O-trimethyl-2,3-dehydrosilybins through a five-step procedure and to 3-O-substituted-5,7,20-O-trimethyl-2,3- dehydrosilybins via a four-step transformation have been developed. Thirty-two nitrogen-containing derivatives of silybin have been achieved through these synthetic methods for the evaluation of their antiproliferative activities towards both androgen-sensitive (LNCaP) and androgen-insensitive prostate cancer cell lines (PC-3 and DU145) using the WST-1 cell proliferation assay. […] All these five optimal derivatives can arrest the PC-3 cell cycle in the G0/G1 phase and promote PC-3 cell apoptosis.
as §3
In summary, six 7-O-aminoalkyl-3,5-20-O-trimethyl-2,3-dehydrosilybins and 26 3-O-aminoalkyl-5,7,20-O-trimethyl-2,3-dehydrosilybins have been successfully synthesized through a five-step and four-step sequence, respectively. The synthetic methods can be used for the general synthesis of 7-O-substituted-3,5,20-O-trimethyl-2,3-dehydrosilybins and 3-O-substituted-5,7,20-O- trimethyl-2,3-dehydrosilybins. The antiproliferative activities of the 32 derivatives against three prostate cancer cell lines have been evaluated using the WST-1 cell proliferation assay. […] All these five optimal derivatives can cause PC-3 cell accumulation in a G0/G1 phase by increasing the cell population in this phase at 16 h. Derivatives 11, 37, and 40 show a stronger ability than derivatives 29 and 31 in activating PC-3 cell apoptosis by inducing appreciable levels of apoptotic cell death at a 5 µM concentration after 16 h of treatment.

[6] = system: PWR-1E non-neoplastic human prostate epithelial cells; test: WST-1 cell proliferation assay, PWR-1E non-neoplastic cells; type: cell-based; conditions: for IC50: Homo sapiens, PWR-1E, 72 h, WST-1, three days of exposure, mean ± SD, n = 3
Protocol: as §4, §3

[7] = system: PC-3 cells; test: F2N12S and SYTOX AADvanced double staining apoptosis assay; type: cell-based, human; conditions: for early phase apoptosis in PC-3 cells: 5 µM; for early phase apoptosis in PC-3 cells / early apoptotic cells / late apoptotic/necrotic cells: range over 11, 37, 40; for concentration at which the apoptotic cell population reached its maximum: PC-3, 16 h
[8] = system: DU145 cells; test: WST-1 cell proliferation assay, DU145; type: cell-based, human; conditions: for IC50: Homo sapiens, DU-145, 72 h, WST-1, three days of exposure, mean ± SD, n = 3; for IC50 (Silibinin)/IC50(Derivative) DU145: fold potency relative to silibinin
Protocol: as §1, §2, §3

[9] = system: PC-3 cells; conditions: WST-1, three days of exposure; cited from earlier work
[10] = system: DU145 cells; conditions: WST-1, three days of exposure; cited from earlier work
[11] = system: LNCaP cells; conditions: WST-1, three days of exposure; cited from earlier work

| SMILES | IC50 (Silibinin)/IC50(Derivative) PC-3 [1] | IC50 ([4]; Homo sapiens, LNCaP, 72 h) | IC50 [4] | IC50 (Silibinin)/IC50(Derivative) LNCaP [4] | IC50 [5] | IC50 [8] | IC50 (Silibinin)/IC50(Derivative) DU145 [8] | PC-3 cell population in G0/G1 phase [2] | IC50 [3] | fold improvement in potency compared to silibinin [5] | IC50 [6] | early phase apoptosis in PC-3 cells ([7]; 16 h) | early apoptotic cells ([7]; 10 µM, 16 h) | late apoptotic/necrotic cells ([7]; 10 µM, 16 h) | early apoptotic cells ([7]; 20 µM, 16 h) | late apoptotic/necrotic cells ([7]; 20 µM, 16 h) | concentration at which the apoptotic cell population reached its maximum [7] | IC50 [9] | IC50 [10] | IC50 [11] | also measured |
| --- | --- | --- | --- | --- | --- | --- | --- | --- | --- | --- | --- | --- | --- | --- | --- | --- | --- | --- | --- | --- | --- |
| CCCN(CCC)CCCOc1cc(OC)c2c(=O)c(OC)c(-c3ccc4c(c3)OC(c3ccc(OC)c(OC)c3)C(CO)O4)oc2c1 (centres unmarked) [Compound 11] | 52 | ≤ 3000 nM | 1820 ± 140 nM | 24 | 1400 to 3060 nM | 1840 ± 140 nM | 51 | 66.3% | > 50000 nM | 17- to 52 fold | > 50000 nM | 26–59% | 56–76% | 6–40% | 54–75% | 16–44% | 5 µM | – | – | – | antiproliferative activity towards MCF 10A ([3]; up to a 50 µM concentration): does not demonstrate apparent antiproliferative activity; antiproliferative activity towards PWR-1E ([6]; up to a 50 µM concentration): does not demonstrate apparent antiproliferative activity |
| CCCOc1c(-c2ccc3c(c2)OC(c2ccc(O)c(OC)c2)C(CO)O3)oc2cc(O)cc(O)c2c1=O (centres unmarked) [Compound 4, 3-O-propyl-2,3-dehydrosilybin, reference compound] | 42 | – | – | 21 | – | – | 8 | – | – | – | – | – | – | – | – | – | – | 1710 ± 450 nM | 11000 ± 680 nM | 2070 ± 180 nM | – |
| CCOc1cc(O)c2c(=O)c(O)c(-c3ccc4c(c3)OC(c3ccc(O)c(OC)c3)C(CO)O4)oc2c1 (centres unmarked) [Compound 3, 7-O-ethyl-2,3-dehydrosilybin, reference compound] | 22 | – | – | 17 | – | – | 12 | – | – | – | – | – | – | – | – | – | – | 3250 ± 310 nM | 7590 ± 660 nM | 2580 ± 70 nM | – |

Second part, led by results:

| IC50 (Silibinin)/IC50(Derivative) PC-3 [1] | IC50 ([4]; Homo sapiens, LNCaP, 72 h) | IC50 [4] | IC50 (Silibinin)/IC50(Derivative) LNCaP [4] | IC50 [5] | IC50 [8] | IC50 (Silibinin)/IC50(Derivative) DU145 [8] | SMILES | PC-3 cell population in G0/G1 phase [2] | IC50 [3] | fold improvement in potency compared to silibinin [5] | IC50 [6] | early phase apoptosis in PC-3 cells ([7]; 16 h) | early apoptotic cells ([7]; 10 µM, 16 h) | late apoptotic/necrotic cells ([7]; 10 µM, 16 h) | early apoptotic cells ([7]; 20 µM, 16 h) | late apoptotic/necrotic cells ([7]; 20 µM, 16 h) | concentration at which the apoptotic cell population reached its maximum [7] | IC50 [9] | IC50 [10] | IC50 [11] | also measured |
| --- | --- | --- | --- | --- | --- | --- | --- | --- | --- | --- | --- | --- | --- | --- | --- | --- | --- | --- | --- | --- | --- |
| – | ≤ 3000 nM | 2210 ± 170 nM | – | 1400 to 3060 nM | 2510 ± 40 nM | – | CCCCN(CCCC)CCCOc1c(-c2ccc3c(c2)OC(c2ccc(OC)c(OC)c2)C(CO)O3)oc2cc(OC)cc(OC)c2c1=O (centres unmarked) [Compound 29] | 50.3% | < 5000 nM | 17- to 52 fold | < 5000 nM | – | – | – | – | – | – | – | – | – | IC50 ([1]; Homo sapiens, PC-3, 72 h): ≤ 3000 nM; IC50 [1]: 2730 ± 120 nM; maximum apoptotic cell population ([7]; 50 µM, 16 h): 71%; apoptotic cell death ([7]; up to a 10 µM concentration, 16 h): less than 10% |
| – | ≤ 3000 nM | 2230 ± 180 nM | – | 1400 to 3060 nM | 3060 ± 130 nM | – | COc1cc(OC)c2c(=O)c(OCCCCCN3CCOCC3)c(-c3ccc4c(c3)OC(c3ccc(OC)c(OC)c3)C(CO)O4)oc2c1 (centres unmarked) [Compound 40] | 43.4% | < 5000 nM | 17- to 52 fold | < 5000 nM | 26–59% | 56–76% | 6–40% | 54–75% | 16–44% | 30 µM | – | – | – | IC50 ([1]; Homo sapiens, PC-3, 72 h): ≤ 3000 nM; IC50 [1]: 2720 ± 80 nM |
